# Activity calls are given as the source filed them.
# What was measured:
# [1] = biological target: Dual specificity tyrosine-phosphorylation-regulated kinase 1A (Rattus norvegicus, UniProt Q63470); type: biochemical, Homo sapiens
# [2] = biological target: T1, Long-chain-fatty-acid--AMP ligase FadD28 (Mycobacterium tuberculosis, UniProt P9WQ59); test: Fluorescence polarization aasay to screen for inhibitors that compete for the binding of FadD28 to a bisubstrate Measured in Biochemical System Using Plate Reader - 2147-01_Inhibitor_Dose_CherryPick_Activity.; type: functional, Mycobacterium tuberculosis H37Rv
# T1 sequence (P9WQ59 whole entry): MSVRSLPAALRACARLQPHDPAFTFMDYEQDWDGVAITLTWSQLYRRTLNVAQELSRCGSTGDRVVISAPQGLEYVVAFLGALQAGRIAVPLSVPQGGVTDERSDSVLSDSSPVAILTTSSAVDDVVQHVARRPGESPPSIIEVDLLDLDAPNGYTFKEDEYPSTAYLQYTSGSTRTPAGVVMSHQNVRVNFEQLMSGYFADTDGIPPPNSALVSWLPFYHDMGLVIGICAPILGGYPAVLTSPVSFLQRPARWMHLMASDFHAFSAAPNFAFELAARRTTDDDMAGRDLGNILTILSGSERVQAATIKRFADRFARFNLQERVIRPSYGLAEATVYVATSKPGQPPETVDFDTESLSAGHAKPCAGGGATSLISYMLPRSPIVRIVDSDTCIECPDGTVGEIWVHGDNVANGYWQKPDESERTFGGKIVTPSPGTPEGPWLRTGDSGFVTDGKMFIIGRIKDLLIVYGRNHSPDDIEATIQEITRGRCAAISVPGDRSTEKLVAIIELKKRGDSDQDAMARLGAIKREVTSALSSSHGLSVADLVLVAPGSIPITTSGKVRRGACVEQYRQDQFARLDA
# Cytochrome P450 2C19 = Cytochrome P450 2C19 (Homo sapiens, UniProt P33261); test: Cytochrome panel assay with activity outcomes. Panel member name: p450-cyp2c19 Compounds with AC50 equal or less than 10 uM are considered active; type: functional
# [3] = biological target: T2, High affinity choline transporter 1 (Homo sapiens, UniProt Q9GZV3); test: CHT inhibitors, dose response, cell-based, 5-point CRC, membrane potential dye (AID 504840); type: functional
# T2 sequence (Q9GZV3 whole entry): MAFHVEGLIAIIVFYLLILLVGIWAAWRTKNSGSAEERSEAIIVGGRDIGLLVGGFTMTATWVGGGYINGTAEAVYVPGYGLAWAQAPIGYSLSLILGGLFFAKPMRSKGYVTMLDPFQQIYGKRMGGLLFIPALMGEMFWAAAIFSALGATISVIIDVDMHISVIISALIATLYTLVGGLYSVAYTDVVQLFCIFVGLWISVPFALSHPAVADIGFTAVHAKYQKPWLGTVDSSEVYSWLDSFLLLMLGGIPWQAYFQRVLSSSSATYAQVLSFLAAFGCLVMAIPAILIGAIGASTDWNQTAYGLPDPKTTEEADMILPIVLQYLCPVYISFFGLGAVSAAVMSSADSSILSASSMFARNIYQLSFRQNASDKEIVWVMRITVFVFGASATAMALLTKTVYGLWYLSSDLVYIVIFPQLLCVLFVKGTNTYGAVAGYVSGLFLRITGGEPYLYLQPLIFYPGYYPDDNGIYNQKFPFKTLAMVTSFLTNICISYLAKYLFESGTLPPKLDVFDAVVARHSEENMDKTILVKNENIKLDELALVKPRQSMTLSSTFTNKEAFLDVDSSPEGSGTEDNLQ
# [4] = biological target: Delta-type opioid receptor (Homo sapiens, UniProt P41143); test: Counterscreen for agonists of heterodimerization of the mu 1 (OPRM1) and delta 1 (OPRD1) opioid receptors: Luminescence-based cell-based high throughput dose response assay to identify agonists of OPRD1 homodimerization. [Related pubchem assays (depositor defined):AID504326, AID504355, AID504692, AID504904, AID504905]; type: functional
# Mu-type opioid receptor = Mu-type opioid receptor (Homo sapiens, UniProt P35372); test: Counterscreen for agonists of heterodimerization of the mu 1 (OPRM1) and delta 1 (OPRD1) opioid receptors: Luminescence-based cell-based high throughput dose response assay to identify agonists of OPRM1 homodimerization.; type: functional;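 also: U2OS cells expressing OPRM1 and beta-arrestin as split beta-galactosidase partners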
# [5] = biological target: 5-hydroxytryptamine receptor 5A (Homo sapiens, UniProt P47898); test: Counterscreen for agonists of OPRM1-OPRD1 heterodimerization: luminescence-based cell-based high throughput dose response assay to identify agonists of 5-hydroxytryptamine (serotonin) 5A receptor (HTR5A). [Related pubchem assays (depositor defined):AID504326, AID504355, AID504692, AID504904, AID504905]; type: functional
# Large T antigen = Large T antigen (Simian virus 40, UniProt P03070); type: functional, Betapolyomavirus macacae;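 also: Confirmatory-stage PubChem screen for compounds that inhibit SV40 T antigen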
# [6] = biological target: T3, Rac GTPase-activating protein 1 (Homo sapiens, UniProt Q9H0H5); test: MgcRacGAP GTPase-activating activity inhibitors, confirmation, biochemical, ADP Hunter fluorescence, primary and confirmatory (AID 624330); type: functional
# T3 sequence (Q9H0H5 whole entry): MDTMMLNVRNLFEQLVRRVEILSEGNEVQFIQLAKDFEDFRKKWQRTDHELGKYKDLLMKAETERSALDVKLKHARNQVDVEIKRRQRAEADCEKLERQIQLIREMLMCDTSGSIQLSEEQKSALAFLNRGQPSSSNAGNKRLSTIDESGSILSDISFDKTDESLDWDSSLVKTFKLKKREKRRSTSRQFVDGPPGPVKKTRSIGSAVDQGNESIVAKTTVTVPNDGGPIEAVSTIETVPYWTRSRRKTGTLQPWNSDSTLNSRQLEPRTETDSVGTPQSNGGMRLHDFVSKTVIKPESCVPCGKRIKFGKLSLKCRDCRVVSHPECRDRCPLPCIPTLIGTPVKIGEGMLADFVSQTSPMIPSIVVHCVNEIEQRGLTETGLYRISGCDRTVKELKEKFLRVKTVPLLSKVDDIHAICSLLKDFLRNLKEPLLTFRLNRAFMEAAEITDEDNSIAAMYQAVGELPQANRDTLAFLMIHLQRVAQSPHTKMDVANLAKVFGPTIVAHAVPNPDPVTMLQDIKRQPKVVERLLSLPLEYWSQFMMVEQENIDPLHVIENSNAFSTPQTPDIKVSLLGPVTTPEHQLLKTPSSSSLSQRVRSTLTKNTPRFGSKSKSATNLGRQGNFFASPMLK
# [7] = Luminescence Cell-Based Dose Confirmation HTS to Identify Activators of 5'UTR Stem-Loop Driven Alpha-Synuclein mRNA Translation in H4 Neuroglioblastoma Cells. [Related pubchem assays: 1829 (Project Summary), 1814 (Primary HTS)]; type: functional
# [8] = Luminescence Cell-Based Dose Response HTS to Identify Activators of Luciferase Translation or Activity in H4 […] Cells. [Related pubchem assays: 1829 (Project Summary), 1814 (Primary HTS)]; type: functional
# H4 = test: Luminescence Cell-Based Dose Response HTS to Identify Activators of 5'UTR Stem-Loop Driven Prion Protein mRNA Translation in H4 Neuroglioblastoma Cells. [Related pubchem assays: 1829 (Project Summary), 1814 (Primary HTS)]; type: functional; conditions: Homo sapiens
# [9] = Luminescence Cell-Based Dose Retest to Confirm Inhibitors of Cancer Stem Cells. [Related pubchem assays (depositor defined):AID2717, AID2721]; type: functional; conditions: Homo sapiens
# [10] = biological target: T4, Microphthalmia-associated transcription factor (Homo sapiens, UniProt O75030); test: TRPM1 promoter luciferase signal decrease, dose response, MITF inhibitor project, cell-based, SK-MEL-5, cherry-picked, set 3 (AID 493073); type: functional
# T4 sequence (O75030 whole entry): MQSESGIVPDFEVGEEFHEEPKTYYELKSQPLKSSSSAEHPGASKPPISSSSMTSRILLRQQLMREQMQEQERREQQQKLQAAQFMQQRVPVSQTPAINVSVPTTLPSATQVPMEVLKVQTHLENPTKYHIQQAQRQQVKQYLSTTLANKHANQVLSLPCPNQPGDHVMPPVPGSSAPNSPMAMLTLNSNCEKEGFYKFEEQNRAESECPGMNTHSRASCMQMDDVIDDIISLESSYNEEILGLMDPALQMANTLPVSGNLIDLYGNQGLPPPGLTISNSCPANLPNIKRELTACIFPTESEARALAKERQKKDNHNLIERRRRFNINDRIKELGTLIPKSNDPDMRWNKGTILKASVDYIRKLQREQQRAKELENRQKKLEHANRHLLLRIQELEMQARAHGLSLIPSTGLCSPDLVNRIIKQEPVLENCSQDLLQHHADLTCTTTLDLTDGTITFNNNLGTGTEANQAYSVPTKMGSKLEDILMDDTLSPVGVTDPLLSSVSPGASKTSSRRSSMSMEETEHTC
# Chain of 5-hydroxytryptamine receptor 5A (P47898 whole entry): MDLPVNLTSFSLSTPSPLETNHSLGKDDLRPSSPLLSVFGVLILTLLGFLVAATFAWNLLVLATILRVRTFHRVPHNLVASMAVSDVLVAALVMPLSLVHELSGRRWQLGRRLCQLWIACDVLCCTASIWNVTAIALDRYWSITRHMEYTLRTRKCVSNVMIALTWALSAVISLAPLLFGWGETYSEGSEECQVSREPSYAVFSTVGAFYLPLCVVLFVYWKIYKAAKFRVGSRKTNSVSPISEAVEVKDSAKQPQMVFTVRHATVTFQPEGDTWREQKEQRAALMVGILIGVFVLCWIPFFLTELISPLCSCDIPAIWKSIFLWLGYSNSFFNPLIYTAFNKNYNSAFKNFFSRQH
# Chain of Mu-type opioid receptor (P35372 whole entry): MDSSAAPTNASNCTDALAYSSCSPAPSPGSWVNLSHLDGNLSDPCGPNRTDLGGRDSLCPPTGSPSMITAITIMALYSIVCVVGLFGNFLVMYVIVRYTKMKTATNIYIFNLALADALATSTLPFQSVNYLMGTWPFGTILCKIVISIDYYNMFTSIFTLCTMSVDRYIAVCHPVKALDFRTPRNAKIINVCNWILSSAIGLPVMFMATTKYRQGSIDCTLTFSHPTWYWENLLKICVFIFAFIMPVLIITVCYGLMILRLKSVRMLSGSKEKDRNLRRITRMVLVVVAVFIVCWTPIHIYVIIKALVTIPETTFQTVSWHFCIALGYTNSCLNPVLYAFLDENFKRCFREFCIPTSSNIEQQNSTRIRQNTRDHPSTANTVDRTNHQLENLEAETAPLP
# Chain of Cytochrome P450 2C19 (P33261 whole entry): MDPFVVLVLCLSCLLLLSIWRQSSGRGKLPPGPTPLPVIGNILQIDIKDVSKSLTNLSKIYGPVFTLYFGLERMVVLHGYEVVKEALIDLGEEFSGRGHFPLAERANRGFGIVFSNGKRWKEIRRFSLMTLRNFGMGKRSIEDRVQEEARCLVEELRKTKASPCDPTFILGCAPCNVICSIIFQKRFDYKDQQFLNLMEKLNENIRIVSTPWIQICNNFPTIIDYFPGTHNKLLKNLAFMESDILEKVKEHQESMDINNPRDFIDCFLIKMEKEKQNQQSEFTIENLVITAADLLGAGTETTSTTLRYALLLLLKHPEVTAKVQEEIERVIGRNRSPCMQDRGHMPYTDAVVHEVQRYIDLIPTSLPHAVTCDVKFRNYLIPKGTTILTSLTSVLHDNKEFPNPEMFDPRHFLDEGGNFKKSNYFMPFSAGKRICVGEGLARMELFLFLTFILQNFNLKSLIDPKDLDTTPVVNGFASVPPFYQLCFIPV
# Chain of Delta-type opioid receptor (P41143 whole entry): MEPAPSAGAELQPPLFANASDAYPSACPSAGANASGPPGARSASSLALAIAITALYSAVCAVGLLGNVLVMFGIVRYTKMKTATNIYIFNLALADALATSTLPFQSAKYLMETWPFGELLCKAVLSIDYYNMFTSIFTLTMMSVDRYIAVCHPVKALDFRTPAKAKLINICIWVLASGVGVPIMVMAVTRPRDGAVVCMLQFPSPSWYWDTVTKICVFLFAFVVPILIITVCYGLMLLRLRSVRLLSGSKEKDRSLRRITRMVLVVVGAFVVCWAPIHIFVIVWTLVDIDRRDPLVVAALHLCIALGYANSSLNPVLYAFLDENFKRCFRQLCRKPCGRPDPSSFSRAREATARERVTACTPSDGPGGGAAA
# Chain of Large T antigen (P03070 whole entry): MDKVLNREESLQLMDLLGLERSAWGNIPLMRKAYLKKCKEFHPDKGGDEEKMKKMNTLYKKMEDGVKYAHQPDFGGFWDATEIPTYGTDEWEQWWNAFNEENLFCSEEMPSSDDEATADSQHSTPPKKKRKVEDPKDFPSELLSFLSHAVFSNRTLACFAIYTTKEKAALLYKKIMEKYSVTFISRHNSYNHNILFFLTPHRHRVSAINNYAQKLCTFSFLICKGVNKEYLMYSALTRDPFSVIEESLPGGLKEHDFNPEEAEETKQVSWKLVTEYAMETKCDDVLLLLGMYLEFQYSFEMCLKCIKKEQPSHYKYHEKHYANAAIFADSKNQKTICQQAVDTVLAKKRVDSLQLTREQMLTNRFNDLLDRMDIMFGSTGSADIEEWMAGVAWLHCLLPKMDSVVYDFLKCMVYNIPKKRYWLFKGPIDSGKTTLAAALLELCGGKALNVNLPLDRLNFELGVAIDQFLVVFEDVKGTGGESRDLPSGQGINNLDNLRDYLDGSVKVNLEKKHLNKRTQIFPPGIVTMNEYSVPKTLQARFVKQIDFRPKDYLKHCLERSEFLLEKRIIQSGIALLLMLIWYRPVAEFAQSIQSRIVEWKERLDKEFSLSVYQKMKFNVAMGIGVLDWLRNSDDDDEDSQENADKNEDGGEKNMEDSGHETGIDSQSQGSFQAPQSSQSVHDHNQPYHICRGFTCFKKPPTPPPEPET
smiles,measurement,setting,value
Oc1ccc(/C=N/n2c(S)nnc2C2CCCCC2)c(O)c1,AC50,[1],930 nM (active)
same,AC50,[2],48.8 µM (active)
CC1=NC(C)(C)Cc2ccccc21.O=C(O)c1ccccc1O,AC50,Cytochrome P450 2C19,inconclusive
same,IC50,[3],13.2 µM (active)
CC1CCCCC1NC(=O)c1c(O)n2ccccc2nc1=O (configuration not stated),IC50,[3],4.79 µM (active)
Brc1ccc(NC2=Nc3ccccc3CC2)cc1,EC50,[4],> 92.5 µM (inactive)
same,EC50,Mu-type opioid receptor,52.1 µM (inactive)
same,EC50,[5],> 92.5 µM (inactive)
CC(/C=C/c1ccc(O)cc1)=N/O,IC50,Large T antigen,8.82 µM (active)
same,AC50,[1],1540 nM (active)
same,IC50,[6],10.5 µM (active)
CC(NC(=O)c1ccc([N+](=O)[O-])o1)C12CC3CC(CC(C3)C1)C2 (configuration not stated),EC50,[7],> 120 µM (not active)
same,EC50,[8],> 120 µM (not active)
same,EC50,H4,13.8 µM (active)
same,AC50,[9],4.68 µM (active)
same,AC50,[10],15.1 µM (active)
Cc1ccc(C(=O)N/C(=C\c2ccc(-c3ccccc3[N+](=O)[O-])o2)C(=O)NCCN(C)C)cc1,AC50,[10],4.87 µM (active)
